Assay results reported in PMC3124361 (Journal of medicinal chemistry, 2011).
≈ marks a conversion by molar mass, not a printed value. Read-outs that look alike come from different tables or passages of the source.

Tests used:
[1] = system: P. falciparum 3D7 cells; conditions: cited from earlier work
[2] = Non-equilibrium solubility by nephelometry, pH 6.5; type: physicochemical; conditions: for solubility: phosphate buffer
[3] = ref [13], [15], cited from earlier work; for Eh Human: predicted hepatic extraction ratio
[4] = molecular target: human albumin (Homo sapiens, UniProt P02768); experiment: Protein binding estimated on human albumin column; type: in vitro ADME; conditions: human albumin chromatographic method
Sequence of human albumin (P02768 25-609): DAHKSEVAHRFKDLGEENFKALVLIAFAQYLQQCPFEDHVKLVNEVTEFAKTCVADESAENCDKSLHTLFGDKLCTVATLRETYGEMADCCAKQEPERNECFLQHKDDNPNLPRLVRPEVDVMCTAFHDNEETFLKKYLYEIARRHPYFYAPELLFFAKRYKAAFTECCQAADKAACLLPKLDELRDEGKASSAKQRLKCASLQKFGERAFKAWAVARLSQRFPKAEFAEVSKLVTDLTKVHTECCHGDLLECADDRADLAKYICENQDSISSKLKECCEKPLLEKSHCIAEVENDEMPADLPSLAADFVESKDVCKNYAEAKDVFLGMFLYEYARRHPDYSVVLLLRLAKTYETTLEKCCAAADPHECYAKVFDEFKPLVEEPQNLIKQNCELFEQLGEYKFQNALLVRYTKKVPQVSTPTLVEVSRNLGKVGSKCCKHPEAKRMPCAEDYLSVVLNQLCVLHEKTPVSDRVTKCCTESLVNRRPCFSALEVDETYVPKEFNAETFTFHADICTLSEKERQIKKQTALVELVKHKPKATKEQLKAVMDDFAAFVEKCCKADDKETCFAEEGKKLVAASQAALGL

[5] = molecular target: hDHODH (Homo sapiens, UniProt Q02127); conditions: read-out: IC50 hDHODH; reported previously; ref [13], [15]; cited from earlier work
Sequence of hDHODH (Q02127 31-395 limits assumed): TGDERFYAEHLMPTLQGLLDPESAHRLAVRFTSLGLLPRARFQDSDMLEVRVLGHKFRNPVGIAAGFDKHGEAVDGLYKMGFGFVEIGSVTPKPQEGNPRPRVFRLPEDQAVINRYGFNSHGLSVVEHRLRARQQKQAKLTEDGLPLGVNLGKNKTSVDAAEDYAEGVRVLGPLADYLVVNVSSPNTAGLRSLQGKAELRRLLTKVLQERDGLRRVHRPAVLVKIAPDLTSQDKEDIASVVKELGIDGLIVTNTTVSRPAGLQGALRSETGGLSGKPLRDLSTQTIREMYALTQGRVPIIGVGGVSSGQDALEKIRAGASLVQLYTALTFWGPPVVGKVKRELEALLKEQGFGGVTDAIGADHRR

[6] = ref [13], [15], cited from earlier work
[7] = system: P. berghei NK65 ANKA strain; conditions: cited from earlier work
[8] = In vitro metabolism in human liver microsomes; type: in vitro ADME; conditions: for microsomal CLint at 1 μM: microsomes, pH 7.4; for Eh Human: predicted hepatic extraction ratio
[9] = system: rat plasma proteins; experiment: Protein binding in rat plasma by ultracentrifugation; type: in vitro ADME; conditions: 37°C
[10] = Mouse systemic exposure after single oral dose; type: in vivo; conditions: single oral dose 20 mg/kg, plasma
[11] = In vitro metabolism in mouse liver microsomes; type: in vitro ADME; conditions: for Eh Mouse: predicted hepatic extraction ratio
[12] = system: P. berghei NK65 ANKA strain; experiment: Peter's test, P. berghei efficacy in mice; type: in vivo, Plasmodium berghei; conditions: for ED50: Plasmodium berghei, in Mus musculus, po, read-out: ED50 95% confidence interval; for adverse reactions attributed to drug: any of the dose levels, efficacy study in mice
[13] = system: P. falciparum 3D7 cells; experiment: P. falciparum whole cell assay; type: cell-based, Plasmodium falciparum
[14] = molecular target: T1, PfDHODH (Plasmodium falciparum, UniProt Q08210); experiment: PfDHODH DCIP dye-based enzyme assay; type: biochemical; conditions: for IC50: IC50 PfDHODH
T1 sequence (Q08210 158-569 limits assumed): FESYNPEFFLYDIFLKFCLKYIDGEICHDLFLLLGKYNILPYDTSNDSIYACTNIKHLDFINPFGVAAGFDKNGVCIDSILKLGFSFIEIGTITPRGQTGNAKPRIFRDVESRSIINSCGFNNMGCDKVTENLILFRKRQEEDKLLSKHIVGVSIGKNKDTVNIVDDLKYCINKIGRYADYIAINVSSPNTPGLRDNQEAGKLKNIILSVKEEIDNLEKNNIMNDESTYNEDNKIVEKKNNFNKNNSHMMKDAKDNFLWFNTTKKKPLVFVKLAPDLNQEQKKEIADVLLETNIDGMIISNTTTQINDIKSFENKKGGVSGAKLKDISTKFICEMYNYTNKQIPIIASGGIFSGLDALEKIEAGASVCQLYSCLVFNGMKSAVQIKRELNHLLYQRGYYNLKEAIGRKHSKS

[15] = Rat pharmacokinetics after IV and oral administration; type: in vivo; conditions: for adverse reactions following IV or oral administration: either dose route; for clearance: male, Sprague Dawley, in vivo, iv

Row | Compound | solubility [2] | Eh Human [3] | Human Plasma Binding [4] | microsomal CLint at 1 μM [8] | Eh Human [8] | binding to rat plasma proteins [9] | Time above 1 μM ([10]; 20 mg/kg) | Eh Mouse [11] | parasite clearance (in words) ([12]; 50 mg/kg BID) | parasite clearance (in words) ([12]; 100 mg/kg QD) | ED50 [12] | adverse reactions attributed to drug [12] | IC50 [14] | adverse reactions following IV or oral administration [15] | further results
1 | Cc1cc(Nc2ccc3ccccc3c2)n2ncnc2n1 [Compound 1, (5-methyl-[1,2,4]triazolo[1,5-a]pyrimidin-7-yl)-naphthalen-2-yl-amine] | 45 to 90 µM (≈ 12.4 to 24.8 µg/mL) | 0.84 | 93.8% | – | – | – | – | – | – | – | – | – | – | – | EC50 ([1]; read-out: EC50 Pf 3D7 cells, serum media, reported previously, ref [13], [15]): 76 nM; IC50 ([1]; read-out: IC50 against the parasite, initial lead, ref [15]): 50 to 100 nM; IC50 [5]: > 200000 nM; CLint Mouse ([6]; mouse liver microsomes, reported previously): 229 μL/min/mg protein; Eh Mouse ([6]; predicted hepatic extraction ratio, mouse): 0.91
2 | Cc1cc(Nc2ccc(C(F)(F)F)cc2)n2ncnc2n1 [Compound 2, (5-methyl-[1,2,4]triazolo[1,5-a]pyrimidin-7-yl)-(4-trifluoromethyl-phenyl)-amine] | 21 to 43 µM (≈ 6.16 to 12.6 µg/mL) | 0.29/ND ^a | 86.9% | – | – | – | – | – | – | – | – | – | – | – | CLint Human ([3]; human liver microsomes, reported previously): 8/ND ^a μL/min/mg protein; suppression of parasitemia ([7]; 50 mg/kg BID, 24 h after the last dose, ref [15]): 90%
3 | Cc1cc(Nc2ccc(S(F)(F)(F)(F)F)cc2)n2ncnc2n1 [Compound 21, N-(4-Pentafluorosulfenylphenyl)-5-methyl-[1,2,4]triazolo[1,5-a]pyrimidin-7-amine] | 71 to 142 µM (≈ 24.9 to 49.9 µg/mL) | – | 95.4% | < 6 µL/min/mg | <0.2/<0.2 | 95.2% | 18 h | <0.2/<0.2 | none of the mice were parasite free on any day | none of the mice were parasite free on any day | 10 to 29 mg/kg | No adverse reactions | < 300 nM | No adverse reactions | fold EC50 above the levels for the comparator anti-malarial drugs [13]: 10-200 fold; fold better activity (lower IC50) against PfDHODH than 2 ([14]; comparator 2): 2-3 fold; clearance ([15]; 5.1 mg/kg): 1.2 mL/min/kg
4 | Cc1cc(Nc2cc(F)c(C(F)(F)F)c(F)c2)n2ncnc2n1 [Compound 32, N-(3,5-difluoro-4-(trifluoromethyl)phenyl)-5-methyl-[1,2,4]triazolo[1,5-a]pyrimidin-7-amine] | 9 to 18 µM (≈ 2.96 to 5.93 µg/mL) | – | 96.6% | < 6 µL/min/mg | <0.2/<0.2 | 97.3% | 19 h | <0.2/<0.2 | parasite free on day 5 | parasite free on day 5 | 7.6 to 13 mg/kg | No adverse reactions | < 300 nM | No adverse reactions | aqueous solubility at pH 6.5 (in words) [2]: poorly soluble; mice remaining parasite free through day 7 ([12]; 100 mg/kg BID, parasites reemerged on day 9): 4/5; clearance ([15]; 0.9 mg/kg): 2.3 mL/min/kg; clearance ([15]; 2.9 mg/kg): 1.5 mL/min/kg
5 | Cc1cc(Nc2ccc3sccc3c2)n2ncnc2n1 [Compound 36, N-(Benzo[b]thiophen-5yl)-5-methyl-[1,2,4]triazolo[1,5-a]pyrimidin-7-amine] | 22 to 44 µM (≈ 6.19 to 12.4 µg/mL) | – | 89.8% | > 30 µL/min/mg | – | – | – | – | – | – | – | – | – | – | Time above 1 μM [10]: <1 h; microsomal CLint at 1 μM ([11]; microsomes, pH 7.4): > 30 µL/min/mg; IC50 ([14]; stated in text): < 100 nM
6 | CCN(CC)CCCC(C)Nc1ccnc2cc(Cl)ccc12 (centres unmarked) [chloroquine, reference compound] | – | – | – | – | – | – | – | – | – | – | – | – | – | – | ED50 in this model ([7]; previous reports, ref [20]): ~2 mg/kg
